According to patent US20160008339A1, “PSORALEN DERIVATIVES FOR PREVENTING OR TREATING HEART FAILURE OR CARDIAC HYPERTROPHY” (MAX-DELBRUCK-CENTRUM FUR MOLEKULARE MEDIZIN, priority 2012, published 2016):

How the values were obtained:
[1] = target: T1, AKAP-Lbc (guanine nucleotide exchange on RhoA) (Homo sapiens, UniProt Q12802); assay: RhoGEF nucleotide exchange assay (GDP against mGTP on RhoA); conditions: IC50 (fifty percent inhibition of nucleotide exchange), 15 min
T1 sequence (Q12802 1994-2333): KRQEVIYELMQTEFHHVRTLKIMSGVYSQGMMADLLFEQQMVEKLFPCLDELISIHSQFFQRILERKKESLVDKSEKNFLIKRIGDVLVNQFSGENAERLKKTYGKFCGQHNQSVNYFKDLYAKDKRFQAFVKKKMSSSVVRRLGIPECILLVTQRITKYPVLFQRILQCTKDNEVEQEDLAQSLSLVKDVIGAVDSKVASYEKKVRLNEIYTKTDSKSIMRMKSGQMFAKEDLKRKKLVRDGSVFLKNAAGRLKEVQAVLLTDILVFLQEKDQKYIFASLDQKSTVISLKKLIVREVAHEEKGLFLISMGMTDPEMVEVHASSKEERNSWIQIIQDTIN
Method: Following the protocol of the RhoGEF exchange assay Biochem Kit, a nucleotide exchange experiment for AKAP-Lbc and RhoA was established. The fluorescence labelled nucleotide analogues 2′(3′)-O—(N-methylanthraniloyl)-guanosine diphosphate and 2′(3′)-O—(N-methylanthraniloyl)-guanosine triphosphate, hereinafter referred to mGDP and mGTP, were used for tracing the nucleotide exchange.
25 μl depletion buffer (100 mmol/L sodium phosphate, pH 7.4, 5 mmol/L EDTA, 200 mmol/L ammonium sulfate) with an excess of mGDP (5 mmol/L) were added to 200 μg recombinant his6-RhoA (25 μl) and incubated one hour at room temperature. Then, magnesium chloride (MgCl2) was added to a final concentration of 10 mmol/L.
By centrifugation with Vivaspin® 500 concentrator vials (MWCO 5 kDa, 10 min, 10000 rpm) and buffer (100 mmol/L sodium phosphate, pH 7.4, 100 mmol/L NaCl, protease inhibitor [cOmplete, Mini, EDTA-free protease inhibitor cocktaile]) RhoA-mGDP was washed twice and reduced to 100 μl. 1 μmol/L RhoA-mGDP and 0.5 μmol/L AKAP-Lbc DHPH in nucleotide exchange buffer (40 mmol/L Tris pH 7.5; 100 mmol/L NaCl; 20 mmol/L MgCl2, 100 μg/ml BSA) were used for the nucleotide exchange. The fluorescence measurements were performed in a micro plate reader (TECAN Safire) over a period of 15 min, whereby the fluorophore of mGDP was excited at 360 nm and the resulting fluorescence signal was determined at 440 nm.
At a concentration relation of 2 μmol/L protein and 1 μmol/L mGTP, an ideal fluorescence signal-to-noise-ratio was found in the nucleotide exchange buffer (40 mM Tris pH 7.5, 100 mmol/L NaCl, 20 mmol/L MgCl2, 100 μg/ml BSA). The fluorescence signal for mGTP was measured analogous to mGDP (λexc=360 nm; λem=440 nm) in a micro plate reader (TECAN Safire) over a period of 15 min. The experiment was performed in a 384-well plate.

3T3 mouse fibroblasts = assay: LPA-induced stress fibre formation, TRITC-phalloidin fluorescence; assay type: cell-based; conditions: 3T3 cells, LPA alone (DMSO)
Description: For the initial analysis, 3T3 cells were used to evaluate the cellular effects of the compounds of the present invention. In these cells changes in the cytoskeleton caused by GTPase activation are well observable, because the cells have a G protein coupled receptor for LPA. A stimulation of 3T3 cells with LPA leads to an activation of RhoA and thereby to the formation of fibrillar actin filaments (F-actin, stress fibres). The participation of AKAP-Lbc as an exchange factor for RhoA within the signal transduction via a G protein of the G−12/13 family was shown.
3T3 mouse fibroblasts were seeded on 30 mm cover slips (in 6 well plates) in a cell density of 2×10^5 cells/well. […]
Following that, the cells were washed with phosphate buffer (Dulbecco's Phosphate-Buffered Saline++) and fixed in 2.5% paraformaldehyde in sodium cacodylate buffer (100 mmol/L sodium cacodylate, 100 mmol/L sucrose, pH 7.4) for 15 min. […] For the microscopic investigations, images were taken with two different fluorescence channels. […]
Without LPA stimulation no stress fibres could be identified after addition of DMSO instead of the compounds of the invention (FIG. 2A, a). […] The quantification of the stress fibre formation were performed with the software package ImageJ by the determination of the overall fluorescence of the TRITC-phalloidin. […]

[2] = tested on: primary neonatal rat cardiomyocytes; assay: Beat frequency of neonatal cardiomyocytes by Fluo-4 calcium measurement; assay type: cell-based; conditions: Fluo-4, from 100 bpm
Method: The frequency of contraction could be determined in a similar manner with a calcium sensor (Fluo-4). In a laser-scanning microscope, Fluo-4 was excited with an argon laser (488 nm) and the emission signals were detected and collected at a wavelength of 505 nm. The fluorescence intensity represented the intracellular concentration of calcium ions. Usually, the line-scan mode was used for image recording, and the line-scan images were recorded with a speed of 1.54 or 1.92 ms per line along the longitudinal axis of the cell. After the sequential image recording, a two-dimensional image with 512×100 lines or 512×2000 lines was generated and saved for later analysis.
Additional calcium measurements were performed. […] The fluorescence dye Fluo-4 was added after 20 min. Fluo-4 is a calcium sensor, which is used for investigating the calcium increase in cells. In cardiomyocytes the dye serves for examining the contractility. During contraction and relaxation, the calcium concentrations differ in the cytosol of cardiomyocytes. The fluorescence intensity of Fluo-4 increases with an increasing calcium concentration, and a decreasing calcium concentration will cause reduced fluorescence intensity. A frequency could be calculated from the fluo-4 fluorescence oscillation by a time depended analysis, wherein the fluorescence was measured over a period of two hours. The ground state at the moment before application (black), the period 10 to 30 sec after application (dark grey) and 70 to 110 sec after application (light grey) were evaluated (FIG. 5). Application refers to the adding of PE or adrenaline. […] The statistical analysis was performed according to the method of analysis of variance (ANOVA).

[3] = tested on: primary neonatal rat cardiomyocytes; assay: Beat rate of neonatal cardiomyocytes counted by light microscope; assay type: cell-based; conditions: PE 100 μmol/L for six hours, from 100 bpm
Method: For cultivation of primary neonatal rat cardiomyocytes, hearts of two to three days old rats were obtained and quickly stored on ice in ADS buffer (116.4 mM NaCl, 5.4 mM KC, 5.6 mM dextrose, 10.9 mM NaH2PO4, 405.7 μmol/L MgSO4, 20 mM Hepes, pH 7.3). Under sterile conditions, the hearts were cleaned from blood and vessels, cut into small pieces and transferred into falcon tubes. The ADS buffer was exchanged against an enzyme solution (see table below). Within four cycles each with five ml enzyme solution and an enzyme mix comprising collagenase and pancreatin, isolated cells were released from the tissue (12 min at 37° C. in a water bath with approx. 220 rpm).
The supernatant with the isolated cells was collected, transferred in fetal calf serum (FCS, 2.5 ml on ice) and subsequently centrifugated in FCS (100 g for 3 min at 4° C.). The supernatant of the centrifugation was discarded and the pellet was resuspended in 5 ml cold plating medium. After an additional centrifugation, the pellet was resuspended in 15 ml medium, transferred into a dish and incubated for two hours at 37° C. to allow the settling of the fibroblasts. The cardiomyocytes in the supernatant were counted with a Scepter Handheld Automated Cell Counter and transferred in dishes coated with gelatine. On the following day the medium was changed.
The neonatal cardiomyocytes were seeded in 6-well plates with 1.5×10^6 cell per well. The stimulation with 100 μmol/L phenylephrine (PE) was performed for six or twenty four hours at 37° C. Untreated cells served as control. The effect of compound 31413 on the α-adrenergic stimulation of the cardiomyocytes was determined after incubation with the compound for three hours. To do this, the contraction of the cells was counted within a minute and different conditions were compared.
Isolated neonatal cardiomyocytes were used to investigate the relation between AKAP-Lbc induced RhoA activation and the contractility of the heart. After a chronic stimulation of the α1-adreno receptors (AR) with the specific agonist PE for six hours, the beats of the cardiomyocytes were counted over a period of 15 s and a beat rate per minute (bpm) was calculated. An increase of the beat rate of the cardiomyocytes from 100 bpm to 160 beats per minute could be observed. […] The beat rate of neonatal cardiomyocytes was counted with help of a light microscope.

[4] = tested on: primary neonatal cardiomyocytes (α-sceletal muscle actin mRNA); assay: Hypertrophy marker α-actin 1 mRNA by quantitative real-time PCR; assay type: cell-based, rat; conditions: PE 100 μmol/L, 24 hours
Method: Primary neonatal cardiomyocytes were prepared as described above. The cardiomyocytes were stimulated for 24 or 48 hours with 100 μmol/L phenylephrin (PE) or 10 μmol/L isoproterenol (ISO) in absence or presence of 10 μmol/L or 50 μmol/L of compound 31413.
After 24 hours or 48 hour of stimulation, the medium was removed, and every well was washed with 2 ml phosphate buffered saline and fixed with 200 μl TRIzol. The cells were removed from each well and transferred into a 1.5 ml Eppendorf tube, respectively.
For cell breakdown, 40 μl chloroform was added to each Eppendorf tube. The broken cells were centrifuged for 15 min at 1400 g and 4° C. The supernatant containing RNA/DNA was taken, mixed with 100 μl isopropanol and centrifugated for 20 min at 1500 g and 4° C. The supernatant was discarded and the pellet was resuspended in 500 μL ethanol. The RNA from the pellet was purified by chromatography. The concentration of the RNA was determined by NANODROP.
The quantification of the hypertrophy marker α-sceletal muscle actin (α-actin 1) mRNA was performed by quantitative real-time PCR. First, the RNA was transcribed to a cDNA with a SuperScript™III First-Strand Synthesis SuperMix (Invitrogen) and random hexamer primers. The cDNA was amplified in a PCR reaction in an Applied Biosystem StepOne™ Real-Time PCR System. Glycerinealdehydephosphate dehydrogenase and NTC (no template control) was used as controls. All samples were triplicates. The following primers have been used: […]

Compound | IC50 [1] | frequency after stimulation [2] | other results
CCCc1cc(=O)oc2cc3occ(-c4ccc(OC)cc4)c3cc12 [Compound 31864, 3-(4-methoxyphenyl)-5-propyl-furo[3,2-g]chromen-7-one] | 39.9 µM |  | 
lysophosphatide acid [LPA, reference compound] |  |  | formation of stress fibres after stimulation (3T3 mouse fibroblasts): clear formation of stress fibres
CNCC(O)c1ccc(O)c(O)c1 (stereo not shown) [adrenaline, reference compound] |  | 200 bpm | 
CCCCc1cc(=O)oc2cc3occ(-c4ccc(OC)cc4)c3cc12 [Compound 31892, 5-butyl-3-(4-methoxyphenyl)furo[3,2-g]chromen-7-one] | 78.9 µM |  | 
CNC[C@H](O)c1cccc(O)c1 [PE, phenylephrine, reference compound] |  | 150 bpm | beat rate of the cardiomyocytes after stimulation [3]: 160 beats per minute; increase in relative amount of α-actin 1 mRNA [4]: threefold increase
